From article PMC6440935, “Characterization and phase I study of CLR457, an orally bioavailable pan-class I PI3-kinase inhibitor” (Investigational New Drugs, 2018)
Like-named read-outs stand apart in the source and are kept apart here.

[1] = drug-related, All Patients, N = 31
[2] = drug-related, all patients N = 31
[3] = suspected related, all patients

C[C@H]1OC(=O)N(c2cc(-c3cnc(N)nc3C(F)(F)F)nc(N3CCOCC3)n2)[C@H]1CO [CLR457]
2 (6.5) n (%): Chills, All Grade [1] | Colitis, All Grade [1] | Colitis, Grade ≥ 3 [1] | Cough, All Grade [1] | Decreased neutrophil count, All Grade [1] | Dehydration, All Grade [1] | Diarrhea, Grade ≥ 3 [1] | Dry mouth, All Grade [1] | Dry skin, All Grade [1] | Headache, All Grade [1] | Hypomagnesaemia, All Grade [1] | Pneumonitis, All Grade [1] | Pneumonitis, Grade ≥ 3 [1] | Rash, Grade ≥ 3 [1] | Weight decreased, All Grade [1]
1 (9.1) n (%): Dehydration, All Grade (drug-related, 100 mg, N = 11) | Diarrhea, Grade ≥ 3 (drug-related, 100 mg, N = 11) | Dry mouth, All Grade (drug-related, 100 mg, N = 11) | Dry skin, All Grade (drug-related, 100 mg, N = 11) | Fatigue, Grade ≥ 3 (drug-related, 100 mg, N = 11) | Headache, All Grade (drug-related, 100 mg, N = 11) | Hyperglycemia, Grade ≥ 3 (drug-related, 100 mg, N = 11) | Hypomagnesaemia, All Grade (drug-related, 100 mg, N = 11) | Rash, Grade ≥ 3 (drug-related, 100 mg, N = 11)
12 (38.7) n (%): Diarrhea, All Grade [1]
0 n (%): Dehydration, Grade ≥ 3 (drug-related, 100 mg, N = 11) | Dry mouth, Grade ≥ 3 (drug-related, 100 mg, N = 11) | Dry skin, Grade ≥ 3 (drug-related, 100 mg, N = 11) | Dysgeusia, Grade ≥ 3 (drug-related, 100 mg, N = 11) | Headache, Grade ≥ 3 (drug-related, 100 mg, N = 11) | Hypomagnesaemia, Grade ≥ 3 (drug-related, 100 mg, N = 11) | Nausea, Grade ≥ 3 (drug-related, 100 mg, N = 11) | Pruritus, Grade ≥ 3 (drug-related, 100 mg, N = 11) | Pyrexia, Grade ≥ 3 (drug-related, 100 mg, N = 11) | Stomatitis, Grade ≥ 3 (drug-related, 100 mg, N = 11) | Vomiting, Grade ≥ 3 (drug-related, 100 mg, N = 11) | Weight decreased, All Grade (drug-related, 100 mg, N = 11) | Weight decreased, Grade ≥ 3 (drug-related, 100 mg, N = 11) | Asthenia, Grade ≥ 3 [1] | Chills, Grade ≥ 3 [1] | Cough, Grade ≥ 3 [1] | Decreased appetite, Grade ≥ 3 [1] | Dry mouth, Grade ≥ 3 [1] | Dry skin, Grade ≥ 3 [1] | Dysgeusia, Grade ≥ 3 [1] | Headache, Grade ≥ 3 [1] | Hypomagnesaemia, Grade ≥ 3 [1] | Nausea, Grade ≥ 3 [1] | Pruritus, Grade ≥ 3 [1] | Pyrexia, Grade ≥ 3 [1] | Stomatitis, Grade ≥ 3 [1] | Vomiting, Grade ≥ 3 [1] | Weight decreased, Grade ≥ 3 [1]
8 (25.8) n (%): Maculo-papular rash, Grade ≥ 3 [1]
4 (12.9) n (%): Dysgeusia, All Grade [1] | Pyrexia, All Grade [1]
3 (27.3) n (%): Dysgeusia, All Grade (drug-related, 100 mg, N = 11) | Pruritus, All Grade (drug-related, 100 mg, N = 11) | Pyrexia, All Grade (drug-related, 100 mg, N = 11) | Rash, All Grade (drug-related, 100 mg, N = 11)
5 (16.1) n (%): Pruritus, All Grade [1] | Vomiting, All Grade [1]
35.5%: Maculo-papular rash, any grade [2]
6 (19.4) n (%): Rash, All Grade [1]
22.6%: Decreased appetite, any grade [2] | Hyperglycemia, any grade [2] | SAEs suspected to be related to the study treatment (in vivo)
45.2%: Stomatitis, any grade [2]
11 (35.5) n (%): Maculo-papular rash, All Grade [1]
6.5%: SAE colitis [3] | SAE diarrhea [3] | SAE pneumonitis [3]
9 (81.8) n (%): Stomatitis, All Grade (drug-related, 100 mg, N = 11)
3 (9.7) n (%): Asthenia, All Grade [1]
16.1%: Drug-related AEs leading to discontinuation of study treatment (in vivo)
1 (3.2) n (%): Decreased neutrophil count, Grade ≥ 3 [1] | Dehydration, Grade ≥ 3 [1] | Fatigue, Grade ≥ 3 [1] | Hyperglycemia, Grade ≥ 3 [1]
7 (22.6) n (%): Decreased appetite, All Grade [1] | Hyperglycemia, All Grade [1]
5 (45.5) n (%): Diarrhea, All Grade (drug-related, 100 mg, N = 11) | Maculo-papular rash, Grade ≥ 3 (drug-related, 100 mg, N = 11)
2 (18.2) n (%): Pneumonitis, All Grade (drug-related, 100 mg, N = 11) | Pneumonitis, Grade ≥ 3 (drug-related, 100 mg, N = 11) | Vomiting, All Grade (drug-related, 100 mg, N = 11)
7 (63.6) n (%): Maculo-papular rash, All Grade (drug-related, 100 mg, N = 11)
38.7%: Diarrhea, any grade [2]
4 patients: Patients with DLTs (of 31 patients treated, 5-100 mg QD)
14 (45.2) n (%): Stomatitis, All Grade [1]
4 (36.4) n (%): Fatigue, All Grade (drug-related, 100 mg, N = 11) | Hyperglycemia, All Grade (drug-related, 100 mg, N = 11) | Nausea, All Grade (drug-related, 100 mg, N = 11)
29%: Fatigue, any grade [2] | Nausea, any grade [2]
9 (29.0) n (%): Fatigue, All Grade [1] | Nausea, All Grade [1]
